Reference: patent US5935954A, “Compounds with improved multi-drug resistance activity” (Vertex Pharmaceuticals Incorporated, priority 1997, dated 1999)
Where two headings read alike, the source gives them in different places.

Experiments:
FKBP12 = FKBP12 (Homo sapiens, UniProt P62942); assay: FKBP12 binding assay (inhibition of rotomase activity); type: biochemical; conditions: apparent Ki
Text: Preferably, the assay measures inhibition of FKBP12 rotomase activity. Such an assay has also been described by M. W. Harding et al., supra and by J. J. Siekierka et al., supra. In this assay the isomerization of an artificial substrate--N-succinyl-Ala-Ala-Pro-Phe-p-nitroanilide--is followed spectrophotometrically. The assay includes the cis form of the substrate, FKBP12, the inhibitor and chymotrypsin. Chymotrypsin is able to cleave p-nitroanilide from the trans form of the substrate, but not the cis form. Release of p-nitroanilide is measured.
The inhibition of FKBP rotomase activity by the preferred FKBP12 binding compounds present in the compositions of this invention was assayed. In this assay various quantities of FKBP12 binding compound (0nM-10 μM) were added to cis-N-succinyl-Ala-Ala-Pro-Phe-p-nitroanilide in the presence of FKBP12 and chymotrypsin. FKBP12 converts the cis form of the substrate to the trans form. This allows chymotrypsin to cleave p-nitroanilide from the substrate. Release of p-nitroanilide was measured spectrophotometrically. This assay allowed me to measure the change in the first order rate constant of the rotomase activity as a function of FKBP12 binding compound concentration and yielded an estimate of apparent Ki.

[1] = tested on: L1210 mouse leukemia cells transformed with the pHaMDR1/A retrovirus carrying a MDR1 cDNA; assay: cells; type: cell-based; conditions: for MDR Ratio: IC50 Dox / IC50 Dox+Inhibitor, 2.5 μM compound; for IC50: Mus musculus, doxorubicin alone
Procedure: To assay the ability of the compounds according to this invention to increase the antiproliferative activity of a drug, cell lines which are known to be resistant to a particular drug may be used. These cell lines include, but are not limited to, the L1210, P388D, CHO and MCF7 cell lines. Alternatively, resistant cell lines may be developed. The cell line is exposed to the drug to which it is resistant, or to the test compound; cell viability is then measured and compared to the viability of cells which are exposed to the drug in the presence of the test compound.
To carry out assays using L1210 mouse leukemia cells transformed with the pHaMDR1/A retrovirus carrying a MDR1 cDNA, we follow the procedure described by Pastan et al., Proc. Natl. Acad. Sci., Vol. 85, […] 4490 (1988). The resistant line, labelled L1210VMDRC.06, is obtained from Dr. M. M. Gottesman of the National Cancer Institute. Drug-resistant transfectants are selected by culturing cells in […] colchicine.
Multi-drug resistance assays are conducted by plating cells (2×10^3, 1×10^4, or 5×10^4 cells/well) in 96 well microtiter plates and exposing them to a concentration range of doxorubicin (50 nM-10 μM) in the presence or absence of multi-drug resistance modifier compounds ("MDR inhibitors") of this invention (1, 2.5 or 10 μM) as described in Ford et al., Cancer Res., Vol. 50, 1748-1756. (1990). After culture for 3 days, the viability of cells is quantitated using MTT (Mossman) or XTT dyes to assess mitochondrial function. Also see, Mossman T., J. Immunol. Methods, Vol. 65, 55-63 (1983).
Results are determined by comparison of the IC50 for doxorubicin alone to the IC50 for doxorubicin+MDR inhibitor. An MDR ratio is calculated (IC50 Dox/ IC50 Dox+Inhibitor) and the integer value used for comparison of compound potencies. […]

[2] = tested on: rat pheochromocytoma cell line; conditions: with NGF; cited from earlier work
nerve cells = conditions: cited from earlier work
[3] = tested on: FK506 binding protein or FKBP12; conditions: cited from earlier work
sensory ganglia = conditions: cited from earlier work
[4] = tested on: multi-drug resistant ("MDR") cells; conditions: cited from earlier work

Chain of FKBP12 (P62942 whole entry, species assumed): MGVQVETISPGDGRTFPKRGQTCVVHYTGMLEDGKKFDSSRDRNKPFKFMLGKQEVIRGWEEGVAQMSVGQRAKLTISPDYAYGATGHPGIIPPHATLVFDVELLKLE

Structure (SMILES) | Ki (FKBP12) [nM] | MDR Ratio ([1]; Date 5/12/95) | further results
CCCOc1ccc(OCCC)c(-c2cncc([C@@H](CCCc3ccccc3)OC(=O)[C@@H]3CCCCN3C(=O)C(=O)c3cc(OC)c(OC)c(OC)c3)c2)c1 [Compound 22] | 31 | 1.3 | MDR Ratio ([1]; Date 4/21/95): 12.4
COc1cc(C(=O)C(=O)N2CCCC[C@H]2C(=O)O[C@H](CCCc2ccccc2)c2cncc(-c3c(OC)cccc3OC)c2)cc(OC)c1OC [Compound 24] | 0.5 | > 14.0 | –
CCC/C=C(/c1cccnc1)c1cccc([C@@H](CCN2CCOCC2)OC(=O)[C@@H]2CCCCN2C(=O)C(=O)c2cc(OC)c(OC)c(OC)c2)c1 [Compound 26] | 2.4 | 8.8 | –
CCC/C=C(/c1cccnc1)c1cccc([C@H](CCN2CCOCC2)OC(=O)[C@@H]2CCCCN2C(=O)C(=O)c2cc(OC)c(OC)c(OC)c2)c1 [Compound 27] | 260 | 12.7 | –
CC/C=C(/c1cccnc1)c1cccc([C@H](CCCc2ccccc2)OC(=O)[C@@H]2CCCCN2C(=O)C(=O)c2cc(OC)c(OC)c(OC)c2)c1 [Compound 28] | 20 | 10.0 | –
CCC/C=C(\c1cccnc1)c1cccc([C@@H](CCN2CCOCC2)OC(=O)[C@@H]2CCCCN2C(=O)C(=O)c2cc(OC)c(OC)c(OC)c2)c1 [Compound 30] | 27 | 14.0 | –
COc1cc(C(=O)C(=O)N2CCCC[C@H]2C(=O)O[C@H](/C(C)=C/[C@H]2CC[C@H](O)CC2)c2cncc(-c3c(OC)cccc3OC)c2)cc(OC)c1OC [Compound 32] | 9.8 | 11.7 | –
COCc1cccc(COC)c1-c1cncc([C@@H](OC(=O)[C@@H]2CCCCN2C(=O)C(=O)c2ccco2)/C(C)=C/[C@H]2CC[C@H](O)CC2)c1 [Compound 40] | 500 | 2.5 | –
CCOCc1cc2ccccc2n1-c1cccc([C@@H](OC(=O)[C@@H]2CCCCN2C(=O)C(=O)c2ccco2)/C(C)=C/[C@H]2CC[C@H](O)CC2)c1 [Compound 43] | 180 | 14.0 | –
C=CCC/C=C(/c1cccnc1)c1ccc([C@@H](OC(=O)[C@@H]2CCCCN2C(=O)C(=O)C(C)(C)C)/C(C)=C/C2CCN(C)CC2)s1 [Compound 52] | 200 | 4.1 | MDR Ratio ([1]; Date 4/21/95): 5.8
COC/C=C(\c1cncc([C@@H](OC(=O)[C@@H]2CCCCN2C(=O)C(=O)CC(C)C)/C(C)=C/[C@H]2CC[C@H](O)CC2)c1)C1CCCCC1 [Compound 59] | 71 | 10.8 | –
CCOCc1cccc(COCC)c1-c1csc([C@H](CCN2CCOCC2)OC(=O)[C@@H]2CCCCN2C(=O)C(=O)C2CCOCC2)c1 [Compound 61] | > 10000 | 2.5 | –
CCOCc1cccc(COCC)c1-c1cncc([C@H](CCN2CCOCC2)OC(=O)[C@@H]2CCCCN2C(=O)C(=O)C2(C)CCCCC2)c1 [Compound 76] | 400 | 6.4 | –
CCOCc1cccc(COCC)c1-c1ccc([C@@H](CCN2CCOCC2)OC(=O)[C@@H]2CCCCN2C(=O)C(=O)C2(C)CCCCC2)s1 [Compound 79] | 12 | 7.8 | –
CCOCc1cccc(COCC)c1-c1cncc(C(CCN2CCOCC2)OC(=O)[C@@H]2CCCCN2C(=O)C(=O)C(C)(C)C(C)C)c1 (stereo partly drawn) [Compound 89] | 263 | 5.0 | –
C=CCC/C=C(/c1cccnc1)c1ccc(C(CCN2CCOCC2)OC(=O)[C@@H]2CCCCN2C(=O)C(=O)C(C)(C)C(C)C)s1 (stereo partly drawn) [Compound 90] | 9 | 7.4 | –
C=CCC/C=C(\c1ccc(C(CCN2CCOCC2)OC(=O)[C@@H]2CCCCN2C(=O)C(=O)C(C)(C)C(C)C)s1)C1CCOCC1 (stereo partly drawn) [Compound 91] | 8 | 2.7 | –
CCC/C=C(\c1cncc(C(OC(=O)[C@@H]2CCCCN2C(=O)C(=O)C2(O)CCC(OC)CC2)/C(C)=C/c2ccncc2)c1)C1CCCCC1 (stereo partly drawn) [Compound 100] | 380 | < 14.0 | –
CCCc1ccc(CCC)n1-c1cccc([C@@H](CCN2CCOCC2)OC(=O)[C@@H]2CCCCN2C(=O)C(=O)[C@@H]2CCCC[C@H]2C)c1 [Compound 105] | 94 | 5.4 | –
CCCc1ccc(CCC)n1-c1cccc([C@@H](CCN2CCOCC2)OC(=O)[C@@H]2CCCCN2C(=O)C(=O)[C@@H]2C[C@H](C(C)(C)OC)CC=C2C)c1 [Compound 107] | 7600 | 8.8 | –
CCCc1ccc(CCC)n1-c1cccc([C@@H](CCN2CCOCC2)OC(=O)[C@@H]2CCCCN2C(=O)C(=O)[C@@H]2C[C@H](OCC)CC[C@H]2C)c1 [Compound 111] | 800 | 9.3 | –
CCCCc1ccc(C)n1-c1cccc([C@@H](CCN2CCOCC2)OC(=O)[C@@H]2CCCCN2C(=O)C(=O)[C@@H]2C[C@H](C(C)(C)OC)CC[C@H]2C)c1 [Compound 112] | 930 | 10.8 | –
CCC/C(=C/COC)c1cncc([C@@H](CCN2CCOCC2)OC(=O)[C@@H]2CCCCN2C(=O)C(=O)C(C)(C)C(C)C)c1 [Compound 113] | 61 | 7.0 | –
CCC/C(=C/COC)c1cncc([C@@H](CCN2CCOCC2)OC(=O)[C@@H]2CCCCN2C(=O)C(=O)[C@@H]2C[C@H](C(C)(C)OC)CC[C@H]2C)c1 [Compound 123] | 2800 | – | MDR Ratio ([1]; Date 4/21/95): 12.4
COc1cccc2c1C(=O)c1c(O)c3c(c(O)c1C2=O)C[C@@](O)(C(=O)CO)C[C@@H]3O[C@H]1C[C@H](N)[C@H](O)[C@H](C)O1 [DXR, doxorubicin, reference compound] | – | – | IC50 ([1]; L1210, read-out: IC50 DXR Alone, Date 4/21/95): 2100 nM; IC50 ([1]; L1210, read-out: IC50 DXR Alone, Date 5/12/95): 700 nM
C=CC[C@@H]1/C=C(\C)C[C@H](C)C[C@H](OC)[C@H]2O[C@@](O)(C(=O)C(=O)N3CCCC[C@H]3C(=O)O[C@H](/C(C)=C/[C@@H]3CC[C@@H](O)[C@H](OC)C3)[C@H](C)[C@@H](O)CC1=O)[C@H](C)C[C@@H]2OC [FK506] | – | – | neurite outgrowth [2]: acts synergistically; stimulation of neurite outgrowth (nerve cells): effective in stimulating neurite outgrowth; binding to FKBP12 [3]: have the ability to bind; neurotrophic effects (sensory ganglia): demonstrated similar neurotrophic effects; sensitization of MDR cells / activity against multi-drug resistance [4]: effective against multi-drug resistance
CO[C@H]1C[C@@H]2CC[C@@H](C)[C@@](O)(O2)C(=O)C(=O)N2CCCC[C@H]2C(=O)O[C@H]([C@H](C)C[C@@H]2CC[C@@H](O)[C@H](OC)C2)CC(=O)[C@H](C)/C=C(\C)[C@@H](O)[C@@H](OC)C(=O)[C@H](C)C[C@H](C)/C=C/C=C/C=C/1C [rapamycin] | – | – | neurite outgrowth [2]: did not inhibit the effects of FK-506 on neurite outgrowth, but rather was neurotrophic itself, displaying an additive effect with FK-506; binding to FKBP12 [3]: have the ability to bind; neurotrophic effects (sensory ganglia): those effects were blocked by rapamycin
